Experimental data from PubChem BioAssay AID2060618 (Molecular Pharmacology Branch, DTP, NCI, 2025).
One block for each molecule: values may come before it.

Tested on: 454973-116-R2-J3-PDC spheroids, percent test/control viability
Experiment: Anticancer human tumor 454973-116-R2-J3-PDC patient-derived pancreatic carcinoma cell line growth inhibition [CLK]
Settings: spheroids with HUVEC and MSC; for IC50: curve of first compound; for viability, T/C: stronger effect = lower value
How it was run: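 Multi-cell-type spheroids combined patient-derived tumor cells with HUVEC endothelial cells and human mesenchymal stem cells. Paired agents were dosed in half-log steps down from about clinical Cmax, or from 10 microM where Cmax was unknown.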

[1] = second compound 0.0316 µM, first compound 0.0316 µM
[2] = second compound 0.0316 µM, first compound 0.1 µM
[3] = second compound 0.0316 µM, first compound 0.316 µM
[4] = second compound 0.0316 µM, first compound 1 µM
[5] = second compound 0.1 µM, first compound 0.0316 µM
[6] = second compound 0.1 µM, first compound 0.1 µM
[7] = second compound 0.1 µM, first compound 0.316 µM
[8] = second compound 0.1 µM, first compound 1 µM
[9] = second compound 0.316 µM, first compound 0.0316 µM
[10] = second compound 0.316 µM, first compound 0.1 µM
[11] = second compound 0.316 µM, first compound 0.316 µM
[12] = second compound 0.316 µM, first compound 1 µM
[13] = second compound 1 µM, first compound 0.0316 µM
[14] = second compound 1 µM, first compound 0.1 µM
[15] = second compound 1 µM, first compound 0.316 µM
[16] = second compound 1 µM, first compound 1 µM
[17] = second compound 3.16 µM, first compound 0.0316 µM
[18] = second compound 3.16 µM, first compound 0.1 µM
[19] = second compound 3.16 µM, first compound 0.316 µM
[20] = second compound 3.16 µM, first compound 1 µM
[21] = second compound 10 µM, first compound 0.0316 µM
[22] = second compound 10 µM, first compound 0.1 µM
[23] = second compound 10 µM, first compound 0.316 µM
[24] = second compound 10 µM, first compound 1 µM
[25] = second compound 0.0316 µM, first compound 0.00316 µM
[26] = second compound 0.0316 µM, first compound 0.01 µM
[27] = second compound 0.1 µM, first compound 0.00316 µM
[28] = second compound 0.1 µM, first compound 0.01 µM
[29] = second compound 0.316 µM, first compound 0.00316 µM
[30] = second compound 0.316 µM, first compound 0.01 µM
[31] = second compound 1 µM, first compound 0.00316 µM
[32] = second compound 1 µM, first compound 0.01 µM
[33] = second compound 3.16 µM, first compound 0.00316 µM
[34] = second compound 3.16 µM, first compound 0.01 µM
[35] = second compound 10 µM, first compound 0.00316 µM
[36] = second compound 10 µM, first compound 0.01 µM
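Further: spheroids exposed to compounds for 7 days before readout.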

- IC50 (second compound 0.0316 µM): > 10000 nM
- IC50 (second compound 0.1 µM): 5040 nM
- IC50 (second compound 0.316 µM): 467 nM
- IC50 (second compound 1 µM): < 31.6 nM
- IC50 (second compound 3.16 µM): < 31.6 nM
- IC50 (second compound 10 µM): < 31.6 nM
SMILES: CC(Nc1ccc2c(c1)OCCn1cc(N3C(=O)OCC3C(F)F)nc1-2)C(N)=O (stereo unspecified) + CNC(=O)c1ccc(Nc2nc(OC3CCCC3)c3c(-c4ccc5nc(C)oc5c4)c[nH]c3n2)c(OC)c1
- viability, T/C [1]: 98.4%
- viability, T/C [2]: 79.5%
- viability, T/C [3]: 80%
- viability, T/C [4]: 70.7%
- viability, T/C (second compound 0.0316 µM, first compound 3.16 µM): 67.9%
- viability, T/C (second compound 0.0316 µM, first compound 10 µM): 46%
- viability, T/C [5]: 96.8%
- viability, T/C [6]: 86.4%
- viability, T/C [7]: 74.9%
- viability, T/C [8]: 59%
- viability, T/C (second compound 0.1 µM, first compound 3.16 µM): 58.6%
- viability, T/C (second compound 0.1 µM, first compound 10 µM): 43%
- viability, T/C [9]: 54.8%
- viability, T/C [10]: 54.4%
- viability, T/C [11]: 55.6%
- viability, T/C [12]: 41.2%
- viability, T/C (second compound 0.316 µM, first compound 3.16 µM): 36.8%
- viability, T/C (second compound 0.316 µM, first compound 10 µM): 30.3%
- viability, T/C [13]: 31.1%
- viability, T/C [14]: 26.9%
- viability, T/C [15]: 22.5%
- viability, T/C [16]: 19.7%
- viability, T/C (second compound 1 µM, first compound 3.16 µM): 16.9%
- viability, T/C (second compound 1 µM, first compound 10 µM): 13.5%
- viability, T/C [17]: 23.5%
- viability, T/C [18]: 26.3%
- viability, T/C [19]: 23.5%
- viability, T/C [20]: 21.5%
- viability, T/C (second compound 3.16 µM, first compound 3.16 µM): 14.7%
- viability, T/C (second compound 3.16 µM, first compound 10 µM): 13.5%
- viability, T/C [21]: 24.3%
- viability, T/C [22]: 22.8%
- viability, T/C [23]: 21.1%
- viability, T/C [24]: 19.7%
- viability, T/C (second compound 10 µM, first compound 3.16 µM): 13.3%
- viability, T/C (second compound 10 µM, first compound 10 µM): 11.1%

- IC50 (second compound 0.0316 µM): > 1000 nM
- IC50 (second compound 0.1 µM): > 1000 nM
- IC50 (second compound 0.316 µM): < 3.16 nM
- IC50 (second compound 1 µM): < 3.16 nM
- IC50 (second compound 3.16 µM): < 3.16 nM
- IC50 (second compound 10 µM): < 3.16 nM
SMILES: CCN1CCN(Cc2ccc(Nc3ncc(F)c(-c4cc(F)c5nc(C)n(C(C)C)c5c4)n3)nc2)CC1 + CNC(=O)c1ccc(Nc2nc(OC3CCCC3)c3c(-c4ccc5nc(C)oc5c4)c[nH]c3n2)c(OC)c1
- viability, T/C [25]: 103%
- viability, T/C [26]: 90.4%
- viability, T/C [1]: 82.8%
- viability, T/C [2]: 69.1%
- viability, T/C [3]: 67.2%
- viability, T/C [4]: 60.4%
- viability, T/C [27]: 96.8%
- viability, T/C [28]: 84.7%
- viability, T/C [5]: 79.2%
- viability, T/C [6]: 67.2%
- viability, T/C [7]: 63.4%
- viability, T/C [8]: 56.2%
- viability, T/C [29]: 44.8%
- viability, T/C [30]: 44.4%
- viability, T/C [9]: 54.5%
- viability, T/C [10]: 55.6%
- viability, T/C [11]: 52.5%
- viability, T/C [12]: 63.6%
- viability, T/C [31]: 34.4%
- viability, T/C [32]: 34.1%
- viability, T/C [13]: 39%
- viability, T/C [14]: 43%
- viability, T/C [15]: 43.3%
- viability, T/C [16]: 47%
- viability, T/C [33]: 30.6%
- viability, T/C [34]: 35.5%
- viability, T/C [17]: 37.2%
- viability, T/C [18]: 39.1%
- viability, T/C [19]: 38.5%
- viability, T/C [20]: 46.2%
- viability, T/C [35]: 27.5%
- viability, T/C [36]: 27%
- viability, T/C [21]: 33.5%
- viability, T/C [22]: 37.8%
- viability, T/C [23]: 41.8%
- viability, T/C [24]: 47.3%

- IC50 (second compound 0.0316 µM): 72.2 nM
- IC50 (second compound 0.1 µM): 66.9 nM
- IC50 (second compound 0.316 µM): 17.9 nM
- IC50 (second compound 1 µM): < 3.16 nM
- IC50 (second compound 3.16 µM): < 3.16 nM
- IC50 (second compound 10 µM): < 3.16 nM
SMILES: COc1c(OCCCN2CCOCC2)ccc2c3n(c(=NC(=O)c4cnc(N)nc4)nc12)CCN3 + CNC(=O)c1ccc(Nc2nc(OC3CCCC3)c3c(-c4ccc5nc(C)oc5c4)c[nH]c3n2)c(OC)c1
- viability, T/C [25]: 99.8%
- viability, T/C [26]: 93%
- viability, T/C [1]: 71.3%
- viability, T/C [2]: 39%
- viability, T/C [3]: 24.4%
- viability, T/C [4]: 8.47%
- viability, T/C [27]: 96.2%
- viability, T/C [28]: 79.6%
- viability, T/C [5]: 70.5%
- viability, T/C [6]: 37.5%
- viability, T/C [7]: 24.2%
- viability, T/C [8]: 8.81%
- viability, T/C [29]: 56.4%
- viability, T/C [30]: 54.7%
- viability, T/C [9]: 47%
- viability, T/C [10]: 26.1%
- viability, T/C [11]: 17.5%
- viability, T/C [12]: 7.41%
- viability, T/C [31]: 34.2%
- viability, T/C [32]: 30.5%
- viability, T/C [13]: 22.2%
- viability, T/C [14]: 13.1%
- viability, T/C [15]: 8.12%
- viability, T/C [16]: 4.63%
- viability, T/C [33]: 25.7%
- viability, T/C [34]: 24.6%
- viability, T/C [17]: 21.1%
- viability, T/C [18]: 14.8%
- viability, T/C [19]: 7.11%
- viability, T/C [20]: 5.46%
- viability, T/C [35]: 24.2%
- viability, T/C [36]: 22%
- viability, T/C [21]: 17.8%
- viability, T/C [22]: 13.3%
- viability, T/C [23]: 8.89%
- viability, T/C [24]: 3.02%
